We go through three molecules from paper PMC5428663, “Identification of small molecule inhibitors of Interleukin-18” (Scientific Reports, 2017).

The test system of assay [1] is hIL-18 induced IFN-γ production in human KG-1 cells. The assay is described as follows: IFN-γ bioassay (hIL-18 induced IFN-γ production in KG-1 cells). The format is cell-based. The note with it: for inhibition of hIL-18 activities (IFN-γ secretion): KG-1 cells, 1 uM inhibitor, increasing hIL-18 (Fig. 4).
Assay [2] deals with T1, hIL-18:ectvIL-18BP complex (Homo sapiens, UniProt Q14116).
T1 construct: Mature human IL-18 was cloned into a modified pET vector containing a C-terminal 6x His tag; 6x His (C); made in house; host or cells: E. coli BL21 gold (DE3) with biotin ligase for hIL-18; E. coli BL21 (DE3) Rosetta-Gami 2 for MBP-ectvIL-18BP
T1 sequence (Q14116 37-193): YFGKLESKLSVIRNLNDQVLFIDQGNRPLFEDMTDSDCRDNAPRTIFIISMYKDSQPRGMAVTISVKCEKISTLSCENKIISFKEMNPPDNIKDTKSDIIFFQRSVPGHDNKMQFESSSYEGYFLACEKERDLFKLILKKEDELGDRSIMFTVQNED
Briefly: biochemical. Particulars: for IC50: 5% DMSO, read-out: IC50, inhibition of hIL-18:ectvIL-18BP complex formation. The format is binding, human; ectromelia virus.

SMILES strings stand for the structures.

Regarding `O=C(Nc1cccc(-c2nc3ccccc3[nH]2)c1)c1ccc(C(=O)Nc2cccc(-c3nc4ccccc4[nH]3)c2)cc1` [NSC61610, 1-N,4-N-bis[3-(1H-benzimidazol-2-yl)phenyl]benzene-1,4-dicarboxamide], the “inhibition of hIL-18 activities (IFN-γ secretion)” value (“inhibition of hIL-18 activities” for short) in assay [1] is “small inhibitory effect”. For the same molecule, in assay [2], the Ki was found to be 200 nM, the “fold difference of calculated Ki (ELISA) vs predicted Autodock Ki” value is on record as “approximately 2 fold” and the IC50 came to 6000 nM.
For `N#Cc1ccc(NC(=O)Nc2ccc(Oc3ccc(NC(=O)Nc4ccc(C#N)cc4)cc3)cc2)cc1` [NSC80734, 1-(4-cyanophenyl)-3-[4-[4-[(4-cyanophenyl)carbamoylamino]phenoxy]phenyl]urea], the EC50 in assay [1] (Homo sapiens, KG-1 cells 1 × 10^6 cells ml^−1, constant hIL-18, 24 hr, read-out: EC50, inhibition of hIL-18 induced IFN-γ production) is about 250 nM. Further, in assay [1], the “inhibition of hIL-18 activities” value is recorded as “best inhibition”. For the same molecule, in assay [2], affinity was put at a Ki of 1800 nM, the “fold difference of calculated Ki (ELISA) vs predicted Autodock Ki” value is given as “approximately 4 fold” and the IC50 worked out at 52000 nM.
Take `CCOC(=O)c1ccc(Nc2sc(C(=O)c3cccc([N+](=O)[O-])c3)c(N)c2C#N)cc1` [NSC201631, ethyl 4-[[4-amino-3-cyano-5-(3-nitrobenzoyl)thiophen-2-yl]amino]benzoate]: in assay [1], the “inhibition of hIL-18 activities” value is listed as “did not inhibit hIL-18 activities”. Also, in assay [2], the Ki was 1600 nM, the “fold difference of calculated Ki (ELISA) vs predicted Autodock Ki” value is on record as “approximately 2 fold” and the IC50 was 44000 nM.
